This is an account of results in patent US20020076827A1, “Methods for diagnosing thyroid conditions and for monitoring thyroxine therapy” (priority 2000, published 2002).

The conditions of data set [1]: in vivo; cited from earlier work.
Data set [2] can be described thus: Conjugates of T4 and T3 in patients' urine by enzymatic hydrolysis and IMx measurement. More on the design: species or system human. As for the experimental part: Thyroxine glucuronidate in urine was hydrolysed with Sigma bacterial β-glucuronidase. The time interval for hydrolysis was tested from 1 to 24 hours under the conditions recommended by Sigma. It was also hydrolyzed by 0.2 N hydrochloric acid at pH 2 over a period of less than one hour.
Bacterial sulfatase (Sigma) was used as directed. […] To confirm our data, triodothyronine sulfate was synthesized by methods of Levitz (personal communication) for radioactive estrone glucuronide.

The nature of data set [3]: Stability of synthesized T3-sulfate. Format: physicochemical. The settings on record: when not stored in liquid form in appropriate buffer. The text has this:
Bacterial sulfatase (Sigma) was used as directed. We found little evidence of the presence of thyroxine sulfate in urine in our preliminary studies but significant levels of triiodothyronine-sulfate were present. To confirm our data, triodothyronine sulfate was synthesized by methods of Levitz (personal communication) for radioactive estrone glucuronide. T3-sulfate gave a unique spectrum with a major absorption maximum at 362 nm as compared to triiodothyronine whose major absorption maxima occurred at 318.

Data set [4] in a line: Stability of urine standard sub-pools measured monthly. The settings on record: 2 ml vials stored at -20 degrees Centigrade. Format: physicochemical. As for the experimental part:
These sub-pools were aliquoted into 2 ml vials and stored as above.

Data set [5] is described as follows: Stability of urinary T3 for time and temperature. Format: physicochemical.
Where [6] appears, read: stored with at least 20% (v/v) of buffer.

Structures are written as SMILES.

Turning to `N[C@@H](Cc1ccc(Oc2cc(I)c(O)c(I)c2)c(I)c1)C(=O)O` [RT3], in data set [1], the metabolic clearance rate is 111 L/d/70 kg.
Regarding `NC(Cc1cc(I)c(Oc2cc(I)c(O)c(I)c2)c(I)c1)C(=O)O` (centres unmarked) [T4, O-(4-hydroxy-3,5-didiodophenyl)-3,5-diiodotyrosine], in data set [1], the metabolic clearance rate was 1.2 L/d/70 kg. In data set [2], the “form of conjugation in urine” value was “almost exclusively as a glucuronide”.
For the molecule `N[C@@H](Cc1cc(I)c(Oc2ccc(OS(=O)(=O)O)c(I)c2)c(I)c1)C(=O)O` [T3-sulfate, triiodothyronine-sulfate], the “stability of T3-sulfate” value in data set [3] was “unstable and rapidly deteriorated”. For the same molecule, in data set [2] (human urine, before and after hydrolysis), the “urinary concentration of conjugate relative to parent compound” value is “about one-third to one-half”.
Regarding `N[C@@H](Cc1cc(I)c(Oc2ccc(O)c(I)c2)c(I)c1)C(=O)O` [T3, O-(4-hydroxy-3-iodophenyl)-3,5-diiodo-L-tyrosine], in data set [4], the “concentration in urine standard sub-pools over time” value is “unchanged for over a year”. Besides, the metabolic clearance rate in data set [1] was 24 L/d/70 kg. Also, in data set [5] (all conditions of time and temperature), the “stability of T3 standards” value is reported as “stable under all conditions”. Besides, in data set [5] (setting [6]), the “stability of urinary T3, frozen state” value is “stable for months” and the “stability of urinary T3, room temperature” value is recorded as “over 3 days”. The “stability of urinary T3, native state” value in data set [5] (without buffer, frozen and room temperature) was “deteriorated in both environments at an accelerated rate”.
